Reference: patent US9005579B2 (priority 2010, dated 2015)

Experiments:
E. coli O111:B4 = conditions: overnight incubation, inhibitory concentrations; cited from earlier work
sortase = sortase (Staphylococcus aureus, UniProt Q2FV99); conditions: in vitro and in vivo; react with Cys184; cited from earlier work
[1] = tested on: Protein A negative Staphylococcus aureus derived from strain 8325-4; experiment: Growth of S. aureus with sub-MIC antibiotic with or without mouse anti-sortase monoclonal antibody (OD600, 12 h); assay type: cell-based; conditions: sub-MIC antibiotic + tissue culture medium, no Ab
Source text: In a separate set of experiments, we assessed the effect of anti-sortase antibodies, in the presence and absence of antibiotic, on the growth of the staphylococci. Monoclonal supernatants were used for these experiments and tissue culture media used as controls. […] Exemplary growth curve results with monoclonal antibody 7C2 at 1:10 dilution are depicted in FIG. 5. The growth results are tabulated in TABLE 3 below based on final OD readings of multiple growth experiments. In each instance, significant growth inhibition is observed with a combination of sub-MIC antibiotics and anti-sortase antibody.
Protein A negative Staphylococcus aureus derived from strain 8325-4 was grown to OD600 0.5 in Brain-Heart Infusion medium at 37° C. (Patel A H et al (1987) Infect Immun 55(12):3103-3110). When applicable, antibiotics were added to the media at sub-MIC doses.
Mouse anti-sortase monoclonals were added to each cell-antibiotic culture at a dilution of either 1:10 or 1:100. OD600 values were measured every 5 mins for 12 hours in a 96-well spectrophotometer.

[2] = tested on: Staphylococci (protein A negative S. aureus strain 8325-4); experiment: Ampicillin and penicillin MIC (serial 2-fold dilutions, microtiter plate); assay type: cell-based, Staphylococcus aureus; conditions: for highest dilution of antibiotic showing normal growth (sub-MIC used in experiments): 12 h, BHI media; for growth of staphylococci in the presence of sub-MIC of antibiotic: no antibody
Protocol: The MIC dose of two cell wall affecting antibiotics, ampicillin and penicillin, was determined for the protein A negative S. aureus strain 8325-4.
Serial 2-fold dilutions of penicillin and ampicillin were prepared in a microtiter plate. Overnight culture of Staphylococci were diluted 1:100 in BHI media and 100 ul was added to each well and the plate incubated for 12 h. Wells without antibiotic served as controls. The highest dilution of antibiotic showing normal growth was used for further experiments. Ampicillin at 0.1 ug/ml and Penicillin at 0.02 ug/ml were used in these experiments.

[3] = D-Ala-D-Ala termini replaced with D-Ala-D-Lac in VRE; cited from earlier work

Chain of sortase (Q2FV99 whole entry): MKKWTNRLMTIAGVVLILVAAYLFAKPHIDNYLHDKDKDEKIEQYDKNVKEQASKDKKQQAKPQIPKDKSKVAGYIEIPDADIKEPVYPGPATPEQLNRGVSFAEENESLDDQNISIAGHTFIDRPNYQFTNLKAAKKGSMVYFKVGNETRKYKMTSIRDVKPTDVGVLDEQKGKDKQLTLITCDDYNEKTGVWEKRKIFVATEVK

In the case of `CC(C)(O/N=C(\C(=O)N[C@@H]1C(=O)N2C(C(=O)[O-])=C(C[n+]3ccccc3)CS[C@H]12)c1csc(N)n1)C(=O)O` [caftazidime], the “HA-1A binding after exposure to the antibiotic” value (E. coli O111:B4) is given as “dose-dependent enhancement of HA-1A binding”.
In the case of `C[N+](C)(C)CCSS(C)(=O)=O` [MTSET], the sortase inhibition (sortase) is listed as “inhibit sortase in vitro and in vivo”.
For `CC1(C)S[C@@H]2[C@H](NC(=O)[C@H](N)c3ccccc3)C(=O)N2[C@H]1C(=O)O` [AMP, Ampicillin], the “Average OD” value ([1]; control of Ab 1:10) was 0.3308, the “Final OD Reading 1” value ([1]; control of Ab 1:10) was 0.2975 and the “Final OD Reading 2” value ([1]; control of Ab 1:10) was 0.3641. The “Average OD” value ([1]; control of Ab 1:100) was 0.4421, the “Final OD Reading 1” value ([1]; control of Ab 1:100) was 0.4216 and the “Final OD Reading 2” value ([1]; control of Ab 1:100) was 0.4627. For the same molecule, the “highest dilution of antibiotic showing normal growth (sub-MIC used in experiments)” value [2] was 0.1 µg/mL and the “growth of staphylococci in the presence of sub-MIC of antibiotic” value [2] was “grow similar to control bacteria without antibiotic”.
For `CN[C@H](CC(C)C)C(=O)N[C@H]1C(=O)N[C@@H](CC(N)=O)C(=O)N[C@H]2C(=O)N[C@H]3C(=O)N[C@H](C(=O)N[C@H](C(=O)O)c4cc(O)cc(O)c4-c4cc3ccc4O)[C@H](O)c3ccc(c(Cl)c3)Oc3cc2cc(c3O[C@@H]2O[C@H](CO)[C@@H](O)[C@H](O)[C@H]2O[C@H]2C[C@](C)(N)[C@H](O)[C@H](C)O2)Oc2ccc(cc2Cl)[C@H]1O` [vancomycin], the “decrease in vancomycin affinity” value [3] is listed as 1000 fold.
In the case of gentamicin, the “HA-1A binding after exposure to the antibiotic” value (E. coli O111:B4) is listed as “not enhanced”.
With Penicillin [PCN] the “Average OD” value ([1]; control of Ab 1:10) was 0.2446, the “Final OD Reading 1” value ([1]; control of Ab 1:10) was 0.218 and the “Final OD Reading 2” value ([1]; control of Ab 1:10) was 0.2712. For the same molecule, the “Average OD” value ([1]; control of Ab 1:100) was 0.3534, the “Final OD Reading 1” value ([1]; control of Ab 1:100) was 0.3508 and the “Final OD Reading 2” value ([1]; control of Ab 1:100) was 0.3561. The “highest dilution of antibiotic showing normal growth (sub-MIC used in experiments)” value [2] was 0.02 µg/mL and the “growth of staphylococci in the presence of sub-MIC of antibiotic” value [2] was “grow similar to control bacteria without antibiotic”.
In the case of `CS(=O)(=O)SCCS(=O)(=O)O` [(2-sulfonatoethyl)methane-thiosulfonate], the sortase inhibition (sortase) is given as “inhibit sortase in vitro and in vivo”.
